Data published in US20110306546A1, “COMPOSITIONS FOR INCREASING HAIR GROWTH AND DECREASING HAIR LOSS” (ALVI ARMANI GENOMICS INC., priority 2010, published 2011).

The molecules below were run on Hair follicles (HF) (assay: Hair follicle (HF) explant growth assay). Details: HF elongation after 7-8 days; 20 ng/ml of each growth factor, hypoxanthine 2 μM; mean of 6-8 independent experiments.
Format: cell-based, human
Protocol: Hair follicles (HF) were extracted from the occipital area of 6-8 individuals with hair loss. The HFs were processed to equivalent lengths and cultured in William's E medium supplemented with 100 units/ml penicillin G, 100 μg/ml streptomycin, 0.25 μg/ml amphotericin B, […], 1 ng/ml hydrocortisone; basic medium or control medium or basic medium supplemented with 20 ng/ml of each of IGF-1, FGF-2, PDGF, Wnt-3A (Wnt), Noggin (Nog), Ephrin A3 (Eph), SHH and BMP-6 as well as hypoxanthine (Hyx) at 2 μM final concentration. The “GF10 cocktail” or “GF10” includes all nine growth factors and hypoxanthine while the “GF7 cocktail” or “GF7” contains six growth factors (all growth factors of GF10 except for FGF-10, Eph and SHH) and hypoxanthine. Growth promotion was measured as elongation of the HF at the end of 7-8 days. All growth factors and hypoxanthine promoted growth individually and in combination (FIG. 1 and Table 1).
In the case of `O=c1[nH]cnc2nc[nH]c12` [Hypx, hypoxanthine], the “Increase in growth (% control) Mean” value is reported as 104.1618 % control.
FGF2: fibroblast growth factor-2 was tested, and the “Increase in growth (% control) Mean” value was 146.474 % control.
In the case of “IGF1: insulin-like growth factors-1, cellular growth factor”, the “Increase in growth (% control) Mean” value is reported as 39.31 % control.
With PDGF: platelet-derived growth factor-AA the “Increase in growth (% control) Mean” value was 69.56 % control.
